Key:
[1] = molecular target: T1, CNGA2:CNGA4:CNGB1b channels (Rattus norvegicus, UniProt A0A8I5ZN27+Q00195+Q64359); test: Activation and deactivation kinetics by concentration jumps, CNGA2:CNGA4:CNGB1b channels; type: cell-based
T1 construct: expressed in transfected cells; host or cells: Xenopus laevis oocytes co-injected with cRNAs (2:1:1); inside-out patches
Source text: (§1) We applied concentration jumps from zero to a defined level and back to zero, yielding the time constants τa and τd, respectively (c.f. Methods section). If the enhancement of the apparent affinity is caused by solely accelerating the binding rate, τa would be decreased and τd would be unaffected. Conversely, if the hydrophobic alkyl chain enhances the apparent affinity by solely decelerating the unbinding rate, τd would be increased and τa could be increased preferentially at lower concentrations.
(§2) In experiments designed to record activation and deactivation kinetics in CNG channels, theta-glass pipettes were used in which one barrel contained control solution and the other barrel the test solution supplemented with the ligand. The theta-glass pipette was mounted on a piezo actuator which was controlled by the computer controlling the voltage protocols. The effective switch time of the solution exchange, t10–90, determined by an open patch pipette and different solutions in the barrels, was negligible compared to the time courses of activation and deactivation to be considered. […]
(§3) The speed of activation and deactivation was determined by fitting the respective time courses with single exponentials yielding the time constant τ. […] To quantify the time course at a given cNMP concentration for a number of measurements τwm and τ were treated equally. […]

[2] = molecular target: T2, CNGA2 channels (Rattus norvegicus, UniProt Q00195); test: Activation and deactivation kinetics by concentration jumps, CNGA2 channels; type: cell-based
T2 construct: expressed in transfected cells; host or cells: Xenopus laevis oocytes injected with cRNA; inside-out patches
T2 sequence (Q00195 1-664): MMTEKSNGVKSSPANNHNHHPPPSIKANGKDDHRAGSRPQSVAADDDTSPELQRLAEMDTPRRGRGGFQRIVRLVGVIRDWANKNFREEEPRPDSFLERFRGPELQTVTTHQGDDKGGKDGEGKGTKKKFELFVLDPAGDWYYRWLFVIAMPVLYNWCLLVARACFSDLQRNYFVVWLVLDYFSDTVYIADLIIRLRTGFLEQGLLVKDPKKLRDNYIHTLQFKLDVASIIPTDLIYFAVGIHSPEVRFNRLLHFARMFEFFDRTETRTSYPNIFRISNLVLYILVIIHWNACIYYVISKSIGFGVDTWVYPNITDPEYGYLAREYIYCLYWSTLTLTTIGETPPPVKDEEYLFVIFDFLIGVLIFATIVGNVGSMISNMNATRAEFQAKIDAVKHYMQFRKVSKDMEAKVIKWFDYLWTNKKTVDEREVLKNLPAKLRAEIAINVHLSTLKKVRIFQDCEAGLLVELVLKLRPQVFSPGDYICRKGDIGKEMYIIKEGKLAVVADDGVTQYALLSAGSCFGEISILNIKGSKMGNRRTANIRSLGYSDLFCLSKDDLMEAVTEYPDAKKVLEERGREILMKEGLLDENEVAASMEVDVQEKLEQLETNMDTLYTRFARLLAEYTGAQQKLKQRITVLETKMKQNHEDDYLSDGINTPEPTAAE
Source text: as §1, §2, §3

[3] = molecular target: T3, homotetrameric CNGA2 channels (Rattus norvegicus, UniProt Q00195); test: Concentration-activation relationship of homotetrameric CNGA2 channels, inside-out patches of Xenopus oocytes; type: cell-based
T3 construct: expressed in transfected cells; host or cells: Xenopus laevis oocytes injected with cRNA; inside-out patches
T3 sequence (Q00195 1-664): T2 sequence (Q00195 1-664)
Description: (§4) For each cNMP derivative a complete concentration-activation relationship was recorded, and the data points were fitted with the Hill equation (equation 1) yielding the concentration of half maximum activation (EC50) and the Hill coefficient H (Fig. 1b,c).
(§5) The subunits CNGA2 (accession No. AF126808), CNGA4 (accession No. U12623) and CNGB1b (accession No. AF068572) of rat olfactory channels as well as mouse HCN2 channels (NM008226) were subcloned in front of the T7 promoter of pGEMHEnew. The respective cRNAs were produced by using the mMESSAGE mMACHINE T7 Kit (Ambion, Austin, TX).
(§6) Oocytes at stages IV and V were injected with 50–130 ng of cRNA encoding either CNGA2, CNGA2:CNGA4:CNGB1b (2:1:1 ratio) or HCN2 channels either manually of or by means of an injection robot (RoboInject®). The injected oocytes were incubated at 18 °C for up to 6 days in Barth’s solution containing (in mM) 84 NaCl, 1 KCl, 2.4 NaHCO3, 0.82 MgSO4, 0.41 CaCl2, 0.33 Ca(NO3)2, 7.5 TRIS, cefuroxime (4.0 µg × ml^−1), and penicillin/streptomycin (100 µg × ml^−1), pH 7.4.
(§7) Macroscopic currents were recorded from inside-out patches of the oocytes by using standard patch-clamp techniques. The patch pipettes were pulled from quartz tubing (P-2000, Sutter Instrument, Novato, USA) with an outer and inner diameter of 1.0 and 0.7 mm (VITROCOM, New Jersey, USA). The corresponding pipette resistance was 0.9–2.3 MΩ. The bath and pipette solution contained (in mM): 150 KCl, 1 EGTA, 5 Hepes (pH 7.4 with KOH) for CNG measurements. For HCN measurements the bath solution contained 100 mM KCl, 10 mM EGTA, 10 mM HEPES (pH 7.2) and 120 mM KCl, 10 mM HEPES, and 1.0 mM CaCl2 (pH 7.2) in the pipette. Recording was carried out at room temperature using an Axopatch 200B amplifier (Axon Instruments, Foster City, CA). Electrophysiology was controlled by the Patchmaster-software (HEKA Elektronik Dr. Schulze GmbH, Lambrecht, Germany). The sampling rate was 5 kHz and the filter implemented in the amplifier (4-pole Bessel) was set to 2 kHz. Measurements in HCN2 channels were generally started 3.5 min after patch excision to minimize channel run down during the measurement[14],[27],[70]. The solutions with the ligand concentrations to be tested were applied via a multi-barrel device to the patches with a flow rate of 0.8 to 1.2 ml/min.
(§8) I is the actual current amplitude and Imax the maximum current amplitude at a saturating cNMP concentration specified for each cNMP and channel. EC50 is the cNMP concentration generating the half maximum current and H the Hill coefficient.

[4] = molecular target: T4, heterotetrameric CNGA2:CNGA4:CNGB1b channels (Rattus norvegicus, UniProt A0A8I5ZN27+Q00195+Q64359); test: Concentration-activation relationship of heterotetrameric CNGA2:CNGA4:CNGB1b channels, inside-out patches of Xenopus oocytes; type: cell-based; conditions: heterotetrameric CNGA2:CNGA4:CNGB1b channels, mean; for EC50: late current at +10 mV
T4 construct: expressed in transfected cells; host or cells: Xenopus laevis oocytes co-injected with cRNAs (2:1:1); inside-out patches
Description: as §4, §5, §6, §7, §8

[5] = tested on: CNGA2:CNGA4:CNGB1b channels; set-up: method as in PMID 17665892; conditions: cited from earlier work
[6] = molecular target: T5, homotetrameric HCN2 channels (Mus musculus, UniProt O88703); test: Concentration-activation relationship of homotetrameric HCN2 channels, inside-out patches of Xenopus oocytes; type: cell-based; conditions: homotetrameric HCN2 channels, mean; for EC50: pre-activation at -130 mV, instantaneous current at -100 mV
T5 construct: expressed in transfected cells; host or cells: Xenopus laevis oocytes injected with cRNA; inside-out patches
T5 sequence (O88703 1-863): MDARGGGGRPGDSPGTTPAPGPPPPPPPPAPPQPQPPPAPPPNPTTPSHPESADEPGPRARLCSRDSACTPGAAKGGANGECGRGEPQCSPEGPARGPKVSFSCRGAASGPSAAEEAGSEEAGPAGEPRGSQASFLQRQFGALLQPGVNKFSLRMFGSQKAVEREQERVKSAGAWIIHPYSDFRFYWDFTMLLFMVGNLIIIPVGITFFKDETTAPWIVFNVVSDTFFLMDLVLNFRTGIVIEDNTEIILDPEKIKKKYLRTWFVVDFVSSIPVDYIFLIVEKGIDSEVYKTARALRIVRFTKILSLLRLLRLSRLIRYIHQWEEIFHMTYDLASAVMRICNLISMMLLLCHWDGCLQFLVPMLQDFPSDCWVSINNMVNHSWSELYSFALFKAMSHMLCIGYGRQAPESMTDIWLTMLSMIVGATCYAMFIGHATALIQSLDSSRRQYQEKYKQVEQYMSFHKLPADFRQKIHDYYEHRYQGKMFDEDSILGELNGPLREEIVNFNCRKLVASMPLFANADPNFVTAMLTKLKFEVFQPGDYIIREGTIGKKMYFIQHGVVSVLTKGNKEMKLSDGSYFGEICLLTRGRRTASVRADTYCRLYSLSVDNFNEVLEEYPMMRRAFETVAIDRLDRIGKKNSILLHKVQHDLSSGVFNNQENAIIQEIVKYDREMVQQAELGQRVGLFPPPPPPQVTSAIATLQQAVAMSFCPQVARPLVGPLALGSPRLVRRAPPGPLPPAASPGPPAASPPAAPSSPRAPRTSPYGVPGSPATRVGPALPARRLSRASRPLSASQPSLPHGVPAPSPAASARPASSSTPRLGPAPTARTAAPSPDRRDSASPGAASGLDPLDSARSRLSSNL
Description: as §5
as §6, with “The oocytes were exposed to collagenase A (3 mg/ml; Roche, Grenzach-Wyhlen, Germany) for 105 min in Ca^2+-free Barth’s solution containing (in mM) 82.5 NaCl, 2 KCl, 1 MgCl2 2, and 5 Hepes, pH 7.4. Oocytes” for “Oocytes”
as §7, §8

[7] = homotetrameric CNGA2 channels, late current at +10 mV, mean
[8] = homotetrameric CNGA2 channels, mean

T4 sequence (Q64359 whole entry, one chain of several): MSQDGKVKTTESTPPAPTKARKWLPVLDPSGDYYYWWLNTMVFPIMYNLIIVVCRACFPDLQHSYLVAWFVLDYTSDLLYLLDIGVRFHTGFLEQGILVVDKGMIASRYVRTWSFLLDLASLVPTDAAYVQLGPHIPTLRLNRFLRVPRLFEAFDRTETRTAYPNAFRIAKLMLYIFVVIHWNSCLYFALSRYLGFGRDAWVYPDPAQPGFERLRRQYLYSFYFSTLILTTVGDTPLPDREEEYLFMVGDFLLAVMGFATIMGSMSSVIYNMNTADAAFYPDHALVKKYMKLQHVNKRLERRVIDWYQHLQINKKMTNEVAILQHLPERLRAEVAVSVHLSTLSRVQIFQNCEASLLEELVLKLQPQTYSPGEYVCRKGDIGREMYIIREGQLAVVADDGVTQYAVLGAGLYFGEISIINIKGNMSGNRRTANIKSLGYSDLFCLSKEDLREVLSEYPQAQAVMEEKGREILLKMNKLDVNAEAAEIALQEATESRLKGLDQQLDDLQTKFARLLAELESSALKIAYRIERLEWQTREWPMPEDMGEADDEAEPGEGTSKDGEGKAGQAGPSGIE
T4 sequence (A0A8I5ZN27 1-858 isoform A0A8I5ZN27-2, one chain of several): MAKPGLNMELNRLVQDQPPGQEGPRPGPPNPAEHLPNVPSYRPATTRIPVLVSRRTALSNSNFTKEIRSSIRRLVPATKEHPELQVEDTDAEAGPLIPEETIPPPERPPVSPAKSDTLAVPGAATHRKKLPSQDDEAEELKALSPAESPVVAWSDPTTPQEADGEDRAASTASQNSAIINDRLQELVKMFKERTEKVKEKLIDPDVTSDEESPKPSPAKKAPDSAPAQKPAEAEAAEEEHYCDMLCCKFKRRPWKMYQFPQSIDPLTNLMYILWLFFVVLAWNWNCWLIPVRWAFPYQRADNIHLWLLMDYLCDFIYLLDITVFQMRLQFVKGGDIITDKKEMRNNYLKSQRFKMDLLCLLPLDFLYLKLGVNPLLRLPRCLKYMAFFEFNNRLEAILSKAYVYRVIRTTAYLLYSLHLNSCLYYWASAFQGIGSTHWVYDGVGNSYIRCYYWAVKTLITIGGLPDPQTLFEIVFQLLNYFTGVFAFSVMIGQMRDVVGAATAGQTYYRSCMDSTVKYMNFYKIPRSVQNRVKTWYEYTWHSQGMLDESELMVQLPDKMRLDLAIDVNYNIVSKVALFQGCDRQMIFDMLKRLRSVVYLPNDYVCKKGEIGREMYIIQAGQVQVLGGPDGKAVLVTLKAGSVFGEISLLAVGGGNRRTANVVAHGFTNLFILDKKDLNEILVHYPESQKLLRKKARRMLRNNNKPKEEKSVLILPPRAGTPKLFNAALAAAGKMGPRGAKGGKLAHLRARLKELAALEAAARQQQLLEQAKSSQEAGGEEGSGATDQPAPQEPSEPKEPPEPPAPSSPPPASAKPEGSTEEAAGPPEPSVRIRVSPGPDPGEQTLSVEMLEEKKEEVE
T1 sequence (Q64359 whole entry, one chain of several): as the sequence (Q64359 whole entry, one chain of several) above
T1 sequence (A0A8I5ZN27 1-858 isoform A0A8I5ZN27-2, one chain of several): as the sequence (A0A8I5ZN27 1-858 isoform A0A8I5ZN27-2, one chain of several) above

Compound | deactivation compared to the effect with CNGA2 channels ([1]; 10 µM) | activation time constant τa ([1]; low concentrations) | deactivation time constant τd compared to cGMP (1G) ([2]; all tested concentrations) | activation time constant τa compared to cGMP (1G) ([2]; at concentrations lower than 1 µM) | EC50 [3, 7] | H (Hill coefficient) [3, 8] | EC50 [4] | H (Hill coefficient) [4] | EC50 [5] | H (Hill coefficient) [6] | EC50 [6] | EC50 ([3]; CNGA2 channels, numeric mean values of box plots (Fig. 2a,b, Fig. 3) and text)
CC(=O)NCCCCCCSc1nc2c(=O)[nH]c(N)nc2n1C1OC2COP(=O)(O)OC2C1O (stereo not drawn) [5G, 8-(Ac)AHT-cGMP] | slowed to a much lower degree | not affected | approximately an order of magnitude increased | larger | 80 nM | 2.7 | 230 nM | 2.0 | – | – | – | –
Nc1nc2c(nc(Sc3ccc(Cl)cc3)n2C2O[C@@H]3COP(=O)(O)O[C@H]3[C@H]2O)c(=O)[nH]1 (stereo in doubt) [8-pCPT-cGMP] | – | – | – | – | – | – | – | – | 73 nM | – | – | –
CC(=O)NCCCCCCCCCCSc1nc2c(N)ncnc2n1C1OC2COP(=O)(O)OC2C1O (stereo not drawn) [7A, 8-(Ac)ADT-cAMP] | – | – | – | – | 2300 nM | 2.4 | 470 nM | 2.7 | – | 1.5 | 14.6 nM | –
CC(=O)NCCSc1nc2c(N)ncnc2n1C1OC2COP(=O)(O)OC2C1O (stereo not drawn) [3A, 8-(Ac)AET-cAMP] | – | – | – | – | – | 2.3 | 4100 nM | 1.8 | – | 1.7 | 70.6 nM | 9900 nM
CC(=O)NCCOCCOCCSc1nc2c(N)ncnc2n1C1OC2COP(=O)(O)OC2C1O (stereo not drawn) [8A, 8-(Ac)APT-cAMP] | – | – | – | – | 24900 nM | 2.4 | 6000 nM | 2.2 | – | 0.9 | 144 nM | –
